We go through one compound from US20240139190A1, “NOVEL ANTIPARASITIC COMPOUNDS AND METHODS” (The Board of Regents of The University of Texas System, priority 2019, published 2024).

Structures are written as SMILES. pEC50: −log10 of the molar value.

In experiment [1] the test system is L. donovani axenic amastigotes. Nature of the experiment: alamarBlue assay, L. donovani axenic amastigotes. It is filed as cell-based, Leishmania donovani. As to the method:
For other parasites, L. donovani, strain MHOM/SD/62/1S-C12D, was grown as previously described. Plasmodium falciparum parasites of the 3D7 strain were cultured in RPMI 1640 medium supplemented with 37.5 mM HEPES, 10 mM D-glucose, 2 mM L-glutamine, 100 μM hypoxanthine, 25 μg/mL gentamicin, 4% (v/v) human serum and 0.25% (v/v) Albumax II, at a 2% haematocrit in an atmosphere of 1% 02, 3% CO2 and 96% N2. Staging and parasitemia of the in vitro culture were assessed by light microscopy of Giemsa-stained thin blood smears.
Leishmania amazonensis axenic amastigotes (100 μL, 2×10^6 cells/mL) were added to 96-multiwell plates containing 100 μL of amastigote culture medium with an appropriate compound dilution series. 0.1% DMSO (no drug) served as a positive control (100%), and 5 μM amphotericin B served as a negative growth control (0%). Only internal wells were used to minimize edge effects from evaporation. […] Similarly, the cytotoxicity of each compound was determined against RAW 264.7 cells and HepG2 cell lines, following 72 h incubation at 37° C. […]
MMV676477 was tested against several other parasites: the axenic amastigotes of Leishmania donovani and Leishmania tarentolae, blood-stage Plasmodium falciparum, and Trypanosoma brucei. The compound's activity was measured using alamarBlue®, Malaria SYBR green I fluorescence (MSF) and CellTiter-Glo® luminescent assays. […]
Background: Resazurin is reduced to fluorescent resorufin, in cell work by metabolically active cells.

The target in experiment [2] is purified L. tarentolae tubulin (Leishmania tarentolae, UniProt A0A640KCM0+A0A640KQN0). Nature of the experiment: Tubulin polymerization turbidity assay, Leishmania tubulin. It is filed as biochemical. The method, then:
L. tarentolae (Parrot strain from ATCC) tubulin was purified. Briefly, promastigotes of L. tarentolae were grown to a high density (˜1×10^8 cells/mL), harvested, and resuspended in PME+P buffer containing 100 mM piperazine N, N′-bis (2-ethanesulfonic acid) (PIPES) buffer (pH 6.9), 1 mM glycol ether diamine tetraacetic acid (EGTA), 1 mM MgCl2, 1 mM benzamidine, 0.5 mM phenylmethylsulfonyl fluoride, 25 μg/ml leupeptin. The resulting suspension was extensively sonicated on ice with a probe sonicator (Misonix), cooled on ice for 30 minutes and centrifuged at 40,000×g for 1 hour at 4° C. using an ultracentrifuge (Beckman, Fullerton, CA). The resulting supernatant was filtered through a glass wool or 0.45-micron filter before loading into an equilibrated DEAE-Sepharose Fast Flow matrix (Amersham Biosciences). The column was washed with two column volumes of PME+P and subsequently four column volumes PME+P containing 0.1 M KCl and 0.25 M glutamate (pH 6.9). Tubulin was eluted with two column volumes PME+P containing 0.3 M KCl and 0.75 M glutamate (pH 6.9), and tubulin-rich fractions were confirmed by tubulin polymerization assays. The assembly-competent tubulin was pooled together and diluted into 1×PME buffer, 2 mM GTP, 10 mM MgCl2 and 8% DMSO (v/v). Tubulin was incubated in this buffer for 45 minutes at 30° C. to promote assembly, centrifuged at 50,000×g at 30° C. for 30 min, and re-suspended in 1 mL of ice-cold PME. […] Purity was assessed by SDS-PAGE and Coomassie Blue.
Tubulin polymerization assays were performed in 96-well half-area microplates (Costar) in a final volume of 100 μL. […] The absorbance at 340 nm was recorded in a Synergy H1 microplate reader (BioTek) for up to 45 min at 37° C. […]
To determine whether MMV676477 directly regulates microtubule assembly, assembly-competent tubulin from Leishmania tarentolae was purified and analyzed (FIG. 5A). […] 3 mg/mL purified L. tarentolae tubulin (3 mg/mL) was treated with serial dilutions of MMV676477 while the absorbance was measured at 340 nm over time.

In experiment [3] the test system is L. amazonensis promastigotes and amastigotes. Nature of the experiment: Microscopic analysis of cell division. It is filed as cell-based, Leishmania amazonensis. The note with it: 48 h at EC50^72 h. The method, then: Promastigotes or amastigotes were treated with the indicated compound concentrations and allowed to adhere to poly-L-lysine coated plates. All cells were fixed with 4% paraformaldehyde and permeabilized/blocked with 0.01% Triton X-100 and 2% BSA in PBS. Promastigotes and amastigotes were incubated with mouse anti-gp46 or anti-p8, respectively at 1:50 or 1:1000 and rat anti-alpha-tubulin antibody at 1:1000. Samples were then probed with A568 anti-mouse and […] secondary antibodies (Molecular Probes). DNA was labeled with Hoescht. Samples were visualized on a Zeiss LSM 880 Inverted confocal Airyscan microscope at 63×; full Z-thicknesses through parasites were obtained. […] For microscopic analysis of mitotic arrest, at least 200 parasites were analyzed per condition per experiment after 48 hrs incubation at compounds' EC50, and the average plus standard error for three experiments was calculated. Representative images were selected from the maximal intensity projections and linearly processed in Adobe Photoshop CS6.
The molecular target of MMV676477 was investigated.

For the compound `CCc1c(C)nc(-n2nc(C)cc2NC(=O)c2ccccc2SC)[nH]c1=O` [MMV676477, N-(1-(5-Ethyl-4-methyl-6-oxo-1,6-dihydropyrimidin-2-yl)-3-methyl-1H-pyrazol-5-yl)-2-(methylthio)benzamide], the “activity against L. donovani axenic amastigotes (in words)” value in experiment [1] was “broad activity”. Further, the pEC50 in experiment [2] was 6.30. Besides, the “selectivity for purified Leishmania tubulin over mammalian tubulin” value in experiment [2] (0.5 vs 11 μM EC50) amounted to 20 fold. The “percentage of L. amazonensis undergoing cell division” value in experiment [3] is “significant two-fold increase”.

By pEC50 is commonly meant the negative decadic logarithm of the EC50, by convention in mol/L.
